Test results as given in patent US6011041A, “Use of anhydrovinblastine” (priority 1996, dated 2000).
Counter-ions that a name gives are not always drawn. Like-named read-outs stand apart in the source and are kept apart here.

Experiments:
[1] = test system: P388 murine leukemia cells; assay: MTT dose response cytotoxicity, P388 (Table 1, FIG. 5); format: cell-based; conditions: Mus musculus, read-out: DRUG IC50
Description: Cytotoxicity experiments on AHVB were performed as direct comparisons with vincristine and navelbine in order to assess its inherent antineoplastic profile against a variety of tumour cell types relative to other relevant vinca alkaloids. The cytotoxicity of AHVB was investigated in vitro against a panel of tumour cell lines of varying lineage in order to determine the specificity of its antitumour activity with respect to cell type. The tumour lines studied were P388 lymphocytic leukemia (a murine lymphocytic leukemia), Noble (Nb) rat U17 lymphoma, MCF7 human breast carcinoma, H460 human non-small cell lung carcinoma, K562 human erythrokeukemia and LS180 human colon carcinoma based on established NCI in vitro new anticancer drug cytotoxicity screening protocols.
Standard dose response cytotoxicity assays (R. Mosmass, J. Immunol. Meth., 65:55-64, 1983) were utilized to determine the IC50 (drug concentration required to induce 50% inhibition of tumour cell growth) for vincristine, navelbine and AHVB. The indicated cell lines were obtained from either the ATCC or NCI tumor repository and were cultured in tissue culture media by standard techniques well known to those skilled in the art, prior to dilution to a defined cell concentration required for the studies in 96 well plates.
A wide range of drug concentrations were exposed to tumour cells growing at log phase in 96-well microtitre plates. Cell concentrations depended on the cell line as well as the length of time to be cultured. Typically, P388 cells were plated at a concentration of 30,000, 2,000 and 750 cells per well for studies lasting 1, 3 and 7 days, respectively MCF7 cells were plated at a concentration of 7,000 and 1,500 cells per well for studies lasting 3 and 7 days, respectively. H460 cells were plated at a concentration of 2,500 and 1,000 cells per well for studies lasting 3 and 7 days, respectively. K562 cells were plated at a concentration of 1,500 and 10,000 cells per well for studies lasting 1 and 3 days, respectively. LS180 cells were plated at a concentration of 5,000 and […] cells per well for studies lasting 3 and 7 days, respectively. After plating all cell lines were incubated (CO2 incubator at 37° C., 5% CO2) for 24 hours prior to addition of the cytotoxic agent (See Table 1). Subsequently the plates were incubated for the indicated time period. At specified times, cells were washed and subsequently exposed to the dye inclusion marker MTT (3-(4,5-dimethylthiazol-2-yl)-2,5diphenyl tetrazolium), which accumulated into viable cells. MTT was added to the cells at a final concentration of 50 μg per well. After a 4 hour incubation, the cells were washed free of media and unreacted MTT, prior to addition of DMSO which was required to solubilize the insoluble formazan precipitate that formed in viable cells. After the sample was mixed through repeated pipetting, the colored product was measured using a plate reader operating at 570 nm. The absorbance values obtained for cells cultured in the absence of drug was assumed to represent 100% viability. Experiments were repeated to substantiate any differences noted between […] and other vinca alkaloids.
A cytotoxicity curve was generated to estimate the IC50 of vincristine, navelbine and AHVB in the murine P388 cell line (see FIG. 5). In this study, P388 cells derived from an ascitic tumor grown in BDF1 were first separated from red cells employing Ficoll-Paque. Isolated while cells were washed twice then placed in serum containing tissue culture media (1×10^5 cells per ml of RPMI 1640 supplemented with L-glutamine, penicillin, streptomycin and 10% fetal bovine serum) and cultured for 2 hours. All non adherent cells were collected and that cell population was defined as P388 cells and used for cytotoxicity assays 24 hours later. Cytotoxicity assays were performed as described in the notes to Table 1. The drug concentrations used are indicated on the X-axis. […]

[2] = weight loss / toxicity in BDF1 mice bearing P388 tumours (FIG. 4); format: in vivo
Description: Groups (five mice per group) of female BDFI mice (Charles Rivers, Canada) were injected (intraperitoneal) with 10^6 P388 cells (as described above). One day after tumor cell inoculation, the mice were given a bolus intravenous injection of indicated drug via the lateral tail vein. Control groups were injected with saline. Free drug samples were prepared on the day of injection such that the final concentrations were sufficient to deliver the indicated drug dose in a volume of 200 μl. All dilutions were made using 0.9% Sodium Chloride Injection USP. The mice were briefly (less than 30 sec.) restrained during intravenous injections. Dilation of the vein was achieved by holding the animals under a heat lamp for a period of between five and ten minutes. Following administration of the test articles, animals were weighed daily for fourteen days and monitored for signs of stress twice daily for the first 14 days (once daily on weekends) and once daily for the remainder of the study. Severely distressed animals were terminated by CO2 asphyxiation and the time of death was recorded to occur on the following day. Although complete dose titrations were completed for each drug, the data shown in FIG. 6 is that obtained after administration of the free drugs at their maximum tolerated dose. This was 3, 40 and 40 mg/kg for vincristine, navelbine and AHVB, respectively.
After treating mice (bearing the P388 tumor) with a single dose of the indicated drug, animals were examined twice daily for the first 14 days (once daily on weekends). Weight gain in the control is an indication of tumor progression.
The studies were conducted as described for FIG. 6. The maximum tolerated dose of AHVB (40 mg/kg) as specified in these studies reflects a very acute (within 1 hour) toxic reaction that limits further dose excalatin for i.v. administration of AHVB.

[3] = cited from earlier work; for dose limiting toxicity: humans
[4] = 24 h, P388, exposure time 1 day
[5] = 72 h, P388, exposure time 3 days
[6] = 168 h, P388, exposure time 7 days

SMILES | IC50 ([1]; P388, 24 h) [µM] | IC50 ([1]; P388, 72 h) [µM] | IC50 ([1]; P388, 168 h) [µM] | time of very acute toxic reaction that limits dose escalation ([2]; i.v., at maximum tolerated dose 40 mg/kg) [h] | toxicity ranking (vinca alkaloid induced weight loss) ([2]; single i.v. injection at maximum tolerated dose, AHVB 40 mg/kg) | IC50 [1, 4] [µM] | IC50 [1, 5] [µM] | IC50 [1, 6] [µM] | dose limiting toxicity [3] | other adverse reactions reported ([3]; i.v.) | intrathecal administration outcome ([3]; intrathecal) | adverse reactions that can occur with single weekly doses ([3]; single weekly doses, i.v.) | most common adverse reaction ([3]; single weekly doses) | most troublesome adverse reactions ([3]; single weekly doses) | local side effects ([3]; intravenous) | incidence of constipation, vomiting, diarrhea, anorexia, and stomatitis ([3]; patients, relative to nausea) | incidence of mild to moderate nausea ([3]; patients) | incidence of mild to moderate peripheral neuropathy (paresthesia and hypesthesia) ([3]; single agent) | toxicity at maximum tolerated dose ([2]; i.v., compared with acute toxicity of AHVB)
CCC1=CC2CN(CCc3c([nH]c4ccccc34)C(C(=O)OC)(c3cc4c(cc3OC)N(C)C3C(O)(C(=O)OC)C(OC(C)=O)C5(CC)C=CCN6CCC43C65)C2)C1 (centres unmarked) [AHVB, 3',4'-anhydrovinblastine] | 0.14 ± 0.053 | 0.015 ± 0.0087 | 0.02 | ≤ 1 | least toxic of the three drugs evaluated |  |  |  |  |  |  |  |  |  |  |  |  |  | 
CC[C@]1(O)C[C@H]2CN(CCc3c([nH]c4ccccc34)[C@@](C(=O)OC)(c3cc4c(cc3OC)N(C=O)[C@H]3[C@@](O)(C(=O)OC)[C@H](OC(C)=O)[C@]5(CC)C=CCN6CC[C@]43[C@@H]65)C2)C1 [vincristine, Sulfate of 22-oxovincaleukoblastine] |  |  |  |  |  | 0.011 ± 0.0036 | 0.001 ± 0.0003 | 0.002 | peripheral neuropathy (in the absence of hematological toxicity) | abdominal cramps, ataxia, foot drop, weight loss, optic atrophy with blindness, transient cortical blindness, fever, cranial nerve manifestations, parehesia and numbness of the digits, polyuria, dysuria, oral ulceration, headache, vomiting, diarrhea, and intestinal necrosis and/or perforation | uniformly fatal | leukopenia, neuritic pain, constipation, and difficulty in walking | hair loss | neuromuscular in origin |  |  |  |  | 
CCC1=C[C@@H]2CN(C1)Cc1c([nH]c3ccccc13)[C@@](C(=O)OC)(c1cc3c(cc1OC)N(C)[C@H]1[C@@](O)(C(=O)OC)[C@H](OC(C)=O)[C@]4(CC)C=CCN5CC[C@]31[C@@H]54)C2 [navelbine, 3',4'-didehydro-4'-deoxy-C'-norvincaleukoblastine-di-L-tartrate] |  |  |  |  |  | 0.02 ± 0.01 | 0.0007 ± 0.0003 | 0.0025 | hematological toxicities and not neurological side effects |  |  |  |  |  | phlebitia or extravasion injury as it is a moderate vasicant | slightly lesser fraction | roughly one-third | 10 % of patients | more prolonged toxicity
